Measured values reported in ChEMBL document CHEMBL5325496, “Discovery, SAR Study of GST Inhibitors from a Novel Quinazolin-4(1H)-one Focused DNA-Encoded Library” (J Med Chem, 2023).

How the values were obtained:
Homo sapiens = species: Homo sapiens; assay: Inhibition of glutathione S-transferase (unknown origin) using CDNB as substrate at 50 uM by spectrophotometric analysis relative to control
[1] = target: T1, Glutathione-S-transferase (Schistosoma japonicum, UniProt Q26513); assay: Inhibition of Schistosoma japonicum GST by spectrophotometric analysis
T1 sequence (Q26513 whole entry): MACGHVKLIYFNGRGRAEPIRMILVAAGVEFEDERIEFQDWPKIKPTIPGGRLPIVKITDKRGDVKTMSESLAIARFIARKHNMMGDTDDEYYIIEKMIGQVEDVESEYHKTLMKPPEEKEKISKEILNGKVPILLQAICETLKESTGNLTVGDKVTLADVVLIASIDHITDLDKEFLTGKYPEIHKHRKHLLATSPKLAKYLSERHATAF

[2] = target: T2, Glutathione S-transferase Mu 2 (Homo sapiens, UniProt P28161); assay: Inhibition of human GSTM2 by spectrophotometric analysis
T2 sequence (P28161 whole entry): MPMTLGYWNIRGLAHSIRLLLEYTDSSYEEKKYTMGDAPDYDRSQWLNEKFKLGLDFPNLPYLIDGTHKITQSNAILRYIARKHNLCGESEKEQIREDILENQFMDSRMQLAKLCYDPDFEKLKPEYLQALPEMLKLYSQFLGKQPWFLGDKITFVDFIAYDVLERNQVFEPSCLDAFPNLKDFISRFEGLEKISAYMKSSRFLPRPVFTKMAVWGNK

inhibition (Homo sapiens) [%] | IC50 [1] [µM] | IC50 [2] [µM] | SMILES
55.6 |  |  | O=C(O)c1cccc(-c2ccc3nc(-c4ccc(Cl)s4)n(Cc4ccc(Cl)cc4)c(=O)c3c2)c1
45.8 |  |  | O=c1c2cc(-c3ccccc3-c3nn[nH]n3)ccc2nc(-c2cccc(Cl)c2)n1Cc1ccc(Cl)cc1
90.8 |  |  | O=c1c2cc(-c3ccccc3-c3nn[nH]n3)ccc2nc(-c2ccc(Cl)s2)n1CCc1ccc(Cl)cc1
65.3 |  |  | Cn1nccc1-c1nc2ccc(-c3ccccc3-c3nn[nH]n3)cc2c(=O)n1Cc1ccc(Cl)cc1
78.7 | 16.6 | > 20 | O=C(O)c1ccccc1-c1ccc2nc(-c3ccc(Cl)s3)n(Cc3ccc(Cl)cc3)c(=O)c2c1
83.6 | 8.86 | 3.38 | O=c1c2cc(-c3ccccc3-c3nn[nH]n3)ccc2nc(-c2ccc(Cl)s2)n1Cc1ccccc1
24.8 |  |  | COC(=O)c1ccccc1-c1ccc2nc(-c3ccc(Cl)s3)n(Cc3ccc(Cl)cc3)c(=O)c2c1
54.4 |  |  | O=C(O)c1cc(-c2ccc3nc(-c4ccc(Cl)s4)n(Cc4ccc(Cl)cc4)c(=O)c3c2)ccc1F
87.5 |  |  | CCOC(=O)CCn1c(-c2ccc(Cl)s2)nc2ccc(-c3ccccc3-c3nn[nH]n3)cc2c1=O
92.5 | 5.46 | 4.03 | O=c1c2cc(-c3ccccc3-c3nn[nH]n3)ccc2nc(-c2ccc(Cl)s2)n1Cc1ccc(Cl)cc1
24.6 |  |  | NC(=O)c1cccc(-c2ccc3nc(-c4ccc(Cl)s4)n(Cc4ccc(Cl)cc4)c(=O)c3c2)c1

The remaining lines, values behind:

SMILES | inhibition (Homo sapiens) [%] | IC50 [1] [µM] | IC50 [2] [µM]
CS(=O)(=O)c1ccccc1-c1ccc2nc(-c3ccc(Cl)s3)n(Cc3ccc(Cl)cc3)c(=O)c2c1 | 12.9 |  | 
O=C(O)C(Cc1ccc(Cl)cc1)Cn1c(-c2ccc(Cl)s2)nc2ccc(-c3ccccc3-c3nn[nH]n3)cc2c1=O (stereo not drawn) | 98.8 | 1.55 | 2.02
O=C(O)CCCn1c(-c2ccc(Cl)s2)nc2ccc(-c3ccccc3-c3nn[nH]n3)cc2c1=O | 76.6 |  | 
O=c1c2cc(-c3ccccc3-c3nn[nH]n3)ccc2ncn1Cc1ccc(Cl)cc1 | 20.3 |  | 
C=C(CC)C(=O)c1ccc(OCC(=O)O)c(Cl)c1Cl [ETHACRYNIC ACID] |  | 1.84 | > 20
COc1cc(/C=C/C(=O)CC(=O)/C=C/c2ccc(O)c(OC)c2)ccc1O [CURCUMIN] |  |  | 1.81
O=c1c2cc(Br)ccc2nc(-c2ccc(Cl)s2)n1Cc1ccc(Cl)cc1 | 20.2 |  | 
O=C(O)CCn1c(-c2ccc(Cl)s2)nc2ccc(-c3ccccc3-c3nn[nH]n3)cc2c1=O | 87.3 | 9.47 | 2.4
O=c1c2cc(-c3ccccc3-c3nn[nH]n3)ccc2nc(-c2cccs2)n1Cc1ccc(Cl)cc1 | 89 | 4.26 | 6.15
